Test system: M. tuberculosis H37Rv growth inhibition
Assay: M. tuberculosis H37Rv growth inhibitors, H37Rv strain (AID 1626)
Conditions: for IC90: measured here: IC90 against H37Rv; for CC50: measured here: Vero cell cytotoxicity

SMILES	IC50 [µM]	IC90 [µM]	CC50 [µM]
O=C(CNC(=O)c1ccc(-c2ccccc2)cc1)OCc1c(F)cccc1Cl	7.49	> 100	
Cc1nc(NC(=O)CSc2nnc(-c3ccc4c(c3)OCO4)o2)c(Cl)cc1Cl		> 100	
Cc1ccc2c(c1)c1ncnc(N3CCc4ccccc4C3)c1n2C	6.39	11.2	
CCc1ccc2c(c1)/C(=C/C(=O)c1cccs1)C(=O)N2	3.06	12.2	18.9
CCCCn1c(NC(=O)C2CCCCC2)nc2ccccc21	0.881	> 100	35
COC(=O)CSc1nc2ccccc2nc1SCC(=O)OC	4.87	12.5	
CCS(=O)(=O)Nc1ccc(-c2cc(-c3ccccc3)c3cc(C)ccc3n2)cc1	9.19	13.5	34.7
COc1c(F)c(F)c(C(=O)Nc2ccc(N3CCN(Cc4ccccc4)CC3)cc2)c(F)c1F	35.9	> 100	27.5
CCC(=O)Nc1nc2ccccc2n1Cc1ccc(Cl)cc1	< 0.195	> 100	> 40
O=C1c2cc([N+](=O)[O-])cc3cc([N+](=O)[O-])cc(c23)C(=O)N1c1ccccn1	2.91	3.34	35.9
CCOC(=O)c1ccc(N/C=C2\CCCCC2=O)cc1		> 100	
CCOc1ccc(CN(C)C(=O)CCl)cc1	26.7	> 100	12.7
Cc1ccc(NC(=O)/C=C/c2ccc([N+](=O)[O-])s2)c(C)c1	1.79	4.42	19.5
CCc1ccc(/C=C/C(=O)C2C(=O)c3ccccc3C2=O)cc1	1.76	2.92	> 40
O=C(CCl)Oc1ccc2occ(C(=O)c3cccs3)c2c1		> 100	
Cc1ccc(-c2nnc(N3CCN(C(=O)c4ccco4)CC3)c3ccccc23)cc1	7.44	13.8	
COC(=O)CSc1cc(SCC(=O)OC)c(C#N)c(SCC(=O)OC)c1	0.785	2.61	
CCOC(=O)c1cnn(C(=O)c2ccccc2)c1N		> 100	
CCc1ccc(C2c3[nH]c4ccccc4c3CCN2C(=O)c2cc(C)nn2C)cc1 (stereo not drawn)	22.2	31.9	> 40
O=[N+]([O-])c1cc(C=Nc2ccc3ccccc3c2)ccc1Br	5.95	> 100	
Cc1ccc(-c2nn(-c3ccccc3)cc2NC(=O)CCl)cc1	29.6	> 100	27.1

SMILES	IC50 [µM]	IC90 [µM]	CC50 [µM]
COc1ccc(CCNC(=O)c2c(N)n(CCN3CCOCC3)c3nc4ccccc4nc23)cc1	11.3	19.1	> 40
CCOC(=O)c1cnc(-n2nc(C)cc2C)nc1NCCc1ccccc1	0.688	1.06	> 40
CCOc1ccc(NC(=O)CSC2=NCCN2)cc1	11.6	> 100	
COc1ccc(CNC(=O)c2sc3nc4c(c(C(F)(F)F)c3c2N)CCC4)cc1OC	12	18.3	
COc1ccc2cc(C(=O)C3CCCN(Cc4cnc(C)s4)C3)ccc2c1 (stereo not drawn)	13.6	> 100	
N#CC(c1cccc(Cl)c1)c1ccc2c(C(F)(F)F)cc(C(F)(F)F)nc2n1 (stereo not drawn)			0.415
CC1CCN(C(=O)COC(=O)c2cc3ccccc3cc2O)CC1	0.634	2.51	
CC1CC(C)CN(C(=O)c2ccc(CNc3c(N4CCCC4)c(=O)c3=O)cc2)C1 (stereo not drawn)	1.46	1.64	
CC1CCCC(NC(=O)COC(=O)c2sc3ccccc3c2Cl)C1C (stereo not drawn)	7.47	> 100	
CCC(=O)c1coc2ccc(O)cc12	11.1	> 100	
O=C(/C=C/c1ccccc1)c1c(O)n(CCc2ccccc2)c(=O)[nH]c1=O	9.75	11.6	37.1
COc1ccc2nc(NC(=O)c3cnccn3)sc2c1			> 40
c1ccc(-c2nnc(SCc3nnc(-c4cccs4)o3)o2)cc1	6.34	11.6	
Cc1nc(N2CCN(Cc3ccc(Cl)cc3)CC2)c2oc3ccccc3c2n1	15.7	19.8	> 40
COc1ccccc1-c1nc(-c2ccccc2)nc(N2CCN(C)CC2)c1C#N	16.5	22	> 40
CCOC(=O)N1C/C(=C\c2ccccc2)C(=O)/C(=C/c2ccccc2)C1	2.11	> 100	19.3
O=c1oc2ccccc2nc1/C=C(\O)c1ccccc1	6.59	> 100	
COc1ccc(C(=O)CSc2nc(-c3ccccn3)nc(C)c2Cl)cc1	6.11	6.84	> 40
O=C(Nc1nc2ccccc2[nH]1)C12CC3CC(CC(C3)C1)C2	2.25	13.1	> 40
CCCCCCCCn1cnc2c(N)c(C)c(C)cc21	15.9	21.4	
CC(C)c1cc(NC(=O)CCl)on1	13.7	32.6	16.7

SMILES	IC50 [µM]	IC90 [µM]	CC50 [µM]
Cc1ccc(Nc2nc(CSc3nnc(-c4cccs4)o3)cs2)cc1	6.8	15.9	> 40
COc1ccc(C(=O)C(CN2CCOCC2)c2ccccc2)cc1F (stereo not drawn)	11.5	12.5	16.1
O=C1c2ccc3c4c(ccc(c24)C(=O)N1CCCCO)C(=O)N(CCCCO)C3=O	7.04	12.9	5.2
CCCCc1ccc(NC(=O)CC(C)C)cc1	6.02	> 100	
COc1cc(CNCCc2c[nH]c3ccccc23)ccc1OCc1ccccc1F	14	21.3	15.1
COc1cccc(-c2nnc(Nc3nc4c(F)cccc4s3)o2)c1	1.56	51.8	> 40
CCOC(=O)N1CCC(N2CCCC(C(=O)c3ccc4cc(OC)ccc4c3)C2)CC1 (stereo not drawn)	8.9	25.1	> 40
COc1ccc2[nH]c(=O)c(CN(C(=O)NC3CCCCC3)C3CCCCC3)cc2c1		> 100	> 40
COC(=O)C1C(O)=C(C=Nc2ccc3ccccc3c2)C(=O)CC1(C)C (stereo not drawn)	33.7	> 100	
O=C(Nc1nc2ccccc2[nH]1)c1cc2ccccc2o1	37.2	> 100	> 40
O=C(/C=C/c1ccc(OCCCF)cc1)Nc1ccnc(-c2ccncc2)n1	84.1	> 100	> 40
CC(C)(C)c1ccc(OC(=O)c2ccc3snnc3c2)cc1	5.94	> 100	
CCOC(=O)CSc1ncnc2c1cnn2-c1ccc(C)cc1C	1.44	2.48	
Nc1ccc(N=Nc2ccccc2)cc1		> 100	
CCc1c(O)nc(SCC(=O)Nc2ccc3c(c2)CCC3)[nH]c1=O	57.4	> 100	
Cc1cc(N2CCCCC2)nc2ccc(NC(=O)c3ccc(Br)o3)cc12	1.69	3.38	> 40
O=C(Cn1nc(CNc2ccc(Cl)cc2)[n+]2c1CCCCC2)c1ccc(Br)cc1	4.63	7.74	
CCCN(CC1CC1)C(=O)COC(=O)c1ccc2c(c1)C(=O)N(c1ccc(OCC)cc1)C2=O		> 100	
CC(C)c1ccc(Nc2nnc(SCC(=O)Nc3ncc(S(=O)(=O)c4ccc([N+](=O)[O-])cc4)s3)s2)cc1	5.63	7.98	
Oc1c(Cl)cc(Cl)cc1/C=C/c1ccc2cccc(O)c2n1	3.06	> 100	10.1
Cc1csc(NC(=O)c2cc([N+](=O)[O-])cc([N+](=O)[O-])c2)n1	11.1	15.9	> 40

SMILES	IC50 [µM]	IC90 [µM]	CC50 [µM]
COc1cc(OC)c2c(-c3ccccc3)cc(=O)oc2c1C(CCN1CCCC(C)C1)c1ccc(N(C)C)cc1 (stereo not drawn)	4.18	5.41	17.1
CCc1nc(NCc2ccc3c(c2)OCO3)c2oc3ccccc3c2n1	8.85	17	> 40
O=[N+]([O-])c1cc(Cl)c(O)c2ncccc12	16.3	24.7	21.7
O=C(/C=C/c1ccccc1O)c1ccc(Cl)cc1	14.4	24.1	27
N=C1S/C(=C\c2ccco2)C(=O)N1c1nccs1	< 0.195	< 0.195	22.5
COc1ccc2nc(N=Nc3ccc(O)c4ccccc34)sc2c1	5.17	10.1	4.6
COCc1cc(S(=O)c2ccc(Cl)cc2)nc(C)n1 (stereo not drawn)	15.1	24.3	22.1
O=C(NCCc1ccc(Cl)cc1)c1ccc(CNc2c(N3CCOCC3)c(=O)c2=O)cc1	2.85	3.19	
O=C(/C=C/c1ccccc1)/C=C/c1ccccc1	5.86	6.68	31.2
COc1ccc(N)cc1-n1cnnn1		> 100	
Cc1nn2c(N3CCN(C)CC3)cc(C(C)(C)C)nc2c1-c1ccccc1	3.03	4.55	25.3
CCCSc1ccc(C(=O)Nc2ccc(Cl)cc2)cn1	27.9	> 100	
Cc1cccc(OCCCCc2c(C)n[nH]c2C)c1	10.9	15.5	> 40
COc1ccc(N=C2C(=O)N3CCCc4cccc2c43)cc1		> 100	
O=C(COc1ccccc1[N+](=O)[O-])c1ccccc1	17	> 100	30
O=C1N(c2ccc3c(c2)OCCO3)C(c2ccccc2)C1(F)F (stereo not drawn)	2.57	7.34	
CCCCOC(=O)Cn1c(-c2ccccc2)nc2ccccc2c1=O	7.75	18.5	
COc1cc(OC)cc(C(=O)Nc2nc(-c3ccccc3)c(-c3ccccc3)o2)c1	0.322	4.94	30.9
C[n+]1c2n(c3ccccc31)N=C(c1cc(C(C)(C)C)c(O)c(C(C)(C)C)c1)CS2	2.54	3.14	> 40
CCOC(=O)C1(CCc2ccccc2)CCN(Cc2ccccn2)CC1	19.7	> 100	
Cc1c(C(=O)Oc2cccc3cccnc23)oc2ccccc12	3.04	3.29	34.6
